Data as given in patent EP0745599A2, “1-(3-Heterocyclylphenyl)-s-triazine-2,4,6-oxo or thiotrione herbicidal agents” (American Cyanamid Company, priority 1995, dated 1996).

Experiments:
Assay type in all cases: in vivo
Settings in all cases: rated four to five weeks after treatment
[1] = system: ABUTILON THEOPHRASTI, MEDIC.; assay: Postemergence herbicidal evaluation, ABUTH (Velvetleaf)
Procedure: (§1) In the tests, seedling plants are grown in jiffy flats for about two weeks. The test compounds are dispersed in 50/50 acetone/water mixtures containing 0.5% TWEEN®20, a polyoxyethylene sorbitan monolaurate surfactant of Atlas Chemical Industries, in sufficient quantities to provide the equivalent of about 0.125 kg to 0.500 kg per hectare of active compound when applied to the plants through a spray nozzle operating at 40 psi for a predetermined time. After spraying, the plants are placed on greenhouse benches and are cared for in the usual manner, commensurate with conventional greenhouse practices. From four to five weeks after treatment, the seedling plants are examined and rated according to the rating system set forth below. Where more than one test is involved for a given compound, the data are averaged.
(§2) Results of herbicide evaluation are expressed on a rating scale (0-9). The scale is based upon a visual observation of plant stand, vigor, malformation, size, chlorosis and overall plant appearance as compared with a control.

[2] = system: ORYZA SATIVA, L. TEBONNET; assay: Postemergence herbicidal evaluation, ORYSAT (Rice, Tebonnet)
Procedure: as §1, §2

ZEA MAYS L. [3] = assay: Postemergence herbicidal evaluation, ZEAMX (Corn, Field)
Procedure: as §1, §2

CHENOPODIUM ALBUM, L. = assay: Preemergence herbicidal evaluation, CHEAL (Lambsquarters, Common)
In short: (§3)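 Seeds mixed with potting soil were planted over about one inch of soil, then sprayed with aqueous acetone solution of test compound at about 0.125 to 0.50 kg per hectare. Cups were kept under standard greenhouse care, and plants were rated visually on a 0-9 scale versus control after four to five weeks.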

GALIUM APARINE = assay: Preemergence herbicidal evaluation, GALAP (Galium)
In short: as §3

[4] = system: ECHINOCHLOA CRUS-GALLI, (L) BEAU; assay: Preemergence herbicidal evaluation, ECHCG (Barnyardgrass)
In short: as §3

[5] = system: GLYCINE MAX(L)MERR. CV. WILLIAMS; assay: Preemergence herbicidal evaluation, GLXMAW (Soybean, Williams)
In short: as §3

[6] = system: ECHINOCHLOA CRUS-GALLI, (L) BEAU; assay: Postemergence herbicidal evaluation, ECHCG (Barnyardgrass)
In short: (§4)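 Visual 0-9 ratings (stand, vigor, malformation, size, chlorosis, appearance relative to control) were taken four to five weeks post-spray and averaged across repeat tests. Treatment was a 40 psi foliar spray on two-week seedlings, equivalent to about 0.125-0.500 kg/ha, formulated in acetone/water (50/50) plus 0.5% TWEEN 20.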

[7] = system: SETARIA VIRIDIS, (L) BEAU; assay: Postemergence herbicidal evaluation, SETVI (Foxtail, Green)
In short: as §4

[8] = system: ABUTILON THEOPHRASTI, MEDIC.; assay: Preemergence herbicidal evaluation, ABUTH (Velvetleaf)
In short: as §3

[9] = system: AMBROSIA ARTEMISIIFOLIA, L.; assay: Preemergence herbicidal evaluation, AMBEL (Ragweed, Common)
In short: as §3

IPOMOEA SPP. = assay: Preemergence herbicidal evaluation, IPOSS (Morningglory Spp.)
In short: as §3

[10] = system: TRITICUM AESTIVUM, CV. APOLLO; assay: Preemergence herbicidal evaluation, TRZAWO (Wheat, Winter, CV. APOLLO)
In short: as §3

ZEA MAYS L. [11] = assay: Preemergence herbicidal evaluation, ZEAMX (Corn, Field)
In short: as §3

## CC(C)OC(=O)Cn1c(=O)n(C)c(=O)n(-c2cc(N3C(=O)C4=C(CCCC4)C3=O)c(F)cc2Cl)c1=O [Compound 4, Isopropyl 3-[2-chloro-5-(1-cyclohexene-1,2-dicarboximido)-4-fluorophenyl]tetrahydro-5-methyl-2,4,6-trioxo-s-triazine-1(2H)-acetate]
[1]; 0.125 kg/ha
  Herbicide rating (0-9) ABUTH: 9.0
[1]; 0.250 kg/ha
  Herbicide rating (0-9) ABUTH: 9.0
[1]; 0.500 kg/ha
  Herbicide rating (0-9) ABUTH: 9.0
[2]; 0.125 kg/ha
  Herbicide rating (0-9) ORYSAT: 4.0
[2]; 0.250 kg/ha
  Herbicide rating (0-9) ORYSAT: 4.0
[2]; 0.500 kg/ha
  Herbicide rating (0-9) ORYSAT: 4.0
ZEA MAYS L. [3]; 0.125 kg/ha
  Herbicide rating (0-9) ZEAMX: 4.5
ZEA MAYS L. [3]; 0.250 kg/ha
  Herbicide rating (0-9) ZEAMX: 4.5
ZEA MAYS L. [3]; 0.500 kg/ha
  Herbicide rating (0-9) ZEAMX: 4.5
CHENOPODIUM ALBUM, L.; 0.125 kg/ha
  Herbicide rating (0-9) CHEAL: 9.0
CHENOPODIUM ALBUM, L.; 0.250 kg/ha
  Herbicide rating (0-9) CHEAL: 9.0
CHENOPODIUM ALBUM, L.; 0.500 kg/ha
  Herbicide rating (0-9) CHEAL: 9.0
GALIUM APARINE; 0.125 kg/ha
  Herbicide rating (0-9) GALAP: 9.0
GALIUM APARINE; 0.250 kg/ha
  Herbicide rating (0-9) GALAP: 9.0
GALIUM APARINE; 0.500 kg/ha
  Herbicide rating (0-9) GALAP: 9.0
[4]; 0.125 kg/ha
  Herbicide rating (0-9) ECHCG: 0.0
[4]; 0.250 kg/ha
  Herbicide rating (0-9) ECHCG: 0.0
[4]; 0.500 kg/ha
  Herbicide rating (0-9) ECHCG: 0.0
[5]; 0.125 kg/ha
  Herbicide rating (0-9) GLXMAW: 0.0
[5]; 0.250 kg/ha
  Herbicide rating (0-9) GLXMAW: 0.0
[5]; 0.500 kg/ha
  Herbicide rating (0-9) GLXMAW: 0.0

## COC(=O)Cn1c(=O)n(C)c(=O)n(-c2cc(N3C(=O)C4=C(CCCC4)C3=O)c(F)cc2F)c1=O [Compound 10, Methyl 3-[5-(1-cyclohexene-1,2-dicarbox-imido)-2,4-difluorophenyl]-5-methyl-2,4,6-trioxo-s-triazine-1(2H)-acetate]
[6]; 0.125 kg/ha
  Herbicide rating (0-9) ECHCG: 0.0
[6]; 0.250 kg/ha
  Herbicide rating (0-9) ECHCG: 0.0
[6]; 0.500 kg/ha
  Herbicide rating (0-9) ECHCG: 0.0
[7]; 0.125 kg/ha
  Herbicide rating (0-9) SETVI: 0.0
[7]; 0.250 kg/ha
  Herbicide rating (0-9) SETVI: 0.0
[7]; 0.500 kg/ha
  Herbicide rating (0-9) SETVI: 0.0
ZEA MAYS L. [3]; 0.125 kg/ha
  Herbicide rating (0-9) ZEAMX: 4.0
ZEA MAYS L. [3]; 0.250 kg/ha
  Herbicide rating (0-9) ZEAMX: 4.0
ZEA MAYS L. [3]; 0.500 kg/ha
  Herbicide rating (0-9) ZEAMX: 4.0
[8]; 0.250 kg/ha
  Herbicide rating (0-9) ABUTH: 0.0
[8]; 0.500 kg/ha
  Herbicide rating (0-9) ABUTH: 0.0
[9]; 0.125 kg/ha
  Herbicide rating (0-9) AMBEL: 0.0
[9]; 0.250 kg/ha
  Herbicide rating (0-9) AMBEL: 0.0
[9]; 0.500 kg/ha
  Herbicide rating (0-9) AMBEL: 0.0
IPOMOEA SPP.; 0.125 kg/ha
  Herbicide rating (0-9) IPOSS: 0.0
IPOMOEA SPP.; 0.250 kg/ha
  Herbicide rating (0-9) IPOSS: 0.0
IPOMOEA SPP.; 0.500 kg/ha
  Herbicide rating (0-9) IPOSS: 0.0
[5]; 0.125 kg/ha
  Herbicide rating (0-9) GLXMAW: 0.0
[5]; 0.250 kg/ha
  Herbicide rating (0-9) GLXMAW: 0.0
[5]; 0.500 kg/ha
  Herbicide rating (0-9) GLXMAW: 0.0
[10]; 0.125 kg/ha
  Herbicide rating (0-9) TRZAWO: 0.0
[10]; 0.250 kg/ha
  Herbicide rating (0-9) TRZAWO: 0.0
[10]; 0.500 kg/ha
  Herbicide rating (0-9) TRZAWO: 0.0
ZEA MAYS L. [11]; 0.125 kg/ha
  Herbicide rating (0-9) ZEAMX: 0.0
ZEA MAYS L. [11]; 0.250 kg/ha
  Herbicide rating (0-9) ZEAMX: 0.0
ZEA MAYS L. [11]; 0.500 kg/ha
  Herbicide rating (0-9) ZEAMX: 0.0
